In US20030036111A1, “Mitochondrial protein” (priority 2001, published 2003):

What was measured:
Type in all cases: biochemical
[1] = molecular target: T1, human DNC (mitochondrial deoxynucleotide carrier) (Homo sapiens, UniProt Q9HC21); assay: Kinetics of [α-35S]dATP/ADP exchange in proteoliposomes reconstituted with recombinant DNC; conditions: for Km: external substrate, internal ADP or dADP 10 mM, read-out: transport affinity (Km)
T1 construct: Amino acids are numbered from 1-320; made in house; host or cells: E. coli BL21(DE3), pET21b; inclusion bodies solubilized in sarkosyl, Ni-NTA purified
T1 sequence (Q9HC21 2-320 limits assumed): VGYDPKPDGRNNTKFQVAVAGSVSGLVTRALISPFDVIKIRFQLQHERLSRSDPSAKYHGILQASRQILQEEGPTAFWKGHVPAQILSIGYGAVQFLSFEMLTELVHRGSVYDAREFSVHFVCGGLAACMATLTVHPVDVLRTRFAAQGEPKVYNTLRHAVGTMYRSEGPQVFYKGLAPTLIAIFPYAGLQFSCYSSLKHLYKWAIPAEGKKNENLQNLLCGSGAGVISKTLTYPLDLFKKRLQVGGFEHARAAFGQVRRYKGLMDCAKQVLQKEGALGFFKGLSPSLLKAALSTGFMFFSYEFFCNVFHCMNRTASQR
Protocol: (§1) FIG. 3. Time course of dATP/ADP exchange and substrate specificity of human DNC. (a) Time course of [α-35 S]dATP/ADP exchange in proteoliposomes reconstituted with the recombinant DNC. [α-35 S]dATP (1 mM) was added to proteoliposomes containing 10 mM ADP (⋄) or 10 mM NaCl (∇). (b) Dependence of DNC activity on internal substrate. Proteoliposomes were preloaded internally with various substrates (concentration 10 mM). Trans-port was started by addition of […] [α-35 S]dATP and stopped after 2 min. The values are means 6 SD of at least three experiments. (c) Inhibition of the rate of [α-35 S]dATP uptake by external substrates. Proteoliposomes were preloaded internally with 10 mM ADP. Transport was started by adding 125 mM [α-35 S]dATP and stopped after 2 min. External substrates (concentration 0.5 mM) were added together with [α-35 S]dATP. The extents of inhibition (%) from a representative experiment are reported. The control value for uninhibited exchange was 0.45 mmol/min per gram of protein.
(§2) The recombinant protein in sarkosyl was reconstituted into liposomes in the presence of substrates (10). Both cardiolipin (1.14 mg/ml) and EDTA (1 mM) were added. Transport was measured at 25° C. with internal and external pHs at 6.8. It was started by adding [α-35S]dATP or [^14C]-ADP and terminated after 2 min by addition of 100 mM of p-chloromercuribenzene sulfonate (10). Entrapped radioactivity was counted (10). The initial transport rate was calculated from the radioactivity taken up by proteoliposomes within 2 min (in the initial linear range). Other transport activities were assayed similarly (10). The amount of DNC incorporated into liposomes was measured as described (11) and varied between 15 and 20% of the protein added to the reconstitution mixture.

[2] = molecular target: T1, human DNC (mitochondrial deoxynucleotide carrier); assay: Dependence of DNC activity ([α-35S]dATP uptake) on internal substrate; conditions: internal substrate 10 mM; 2 min
Protocol: as §1, with “Transport was started by adding 125 mM [α-35 S]dATP and stopped after 2 min.” left out, “reported.” for “reported. The control value for uninhibited exchange was 0.45 mmol/min per gram of protein.”
as §2, with “Both cardiolipin (1.14 mg/ml) and EDTA (1 mM) were added.” left out, “(10).” for “(10). The amount of DNC incorporated into liposomes was measured as described (11) and varied between 15 and 20% of the protein added to the reconstitution mixture.”

[3] = molecular target: T1, human DNC (mitochondrial deoxynucleotide carrier); assay: Homo-exchange of other carrier substrates in DNC proteoliposomes; conditions: internal concentration 10 mM; external concentration 1 mM
Protocol: as §2, with “Both cardiolipin (1.14 mg/ml) and EDTA (1 mM) were added.” left out, “(10).” for “(10). The amount of DNC incorporated into liposomes was measured as described (11) and varied between 15 and 20% of the protein added to the reconstitution mixture.”

Structure (SMILES)	Km [1] [µM]	rate of [α-35 S]dATP uptake into proteoliposomes with internal substrate [2]	homo-exchange catalysed by reconstituted DNC [3]	rate constant of exchange of [α-35 S]dATP for dADP or ADP (first-order kinetics) ([1]; reconstituted human DNC, 25° C., pH 6.8) [min⁻¹]
Nc1ncnc2c1ncn2[C@@H]1O[C@H](COP(=O)(O)OP(=O)(O)O)[C@@H](O)[C@H]1O [ADP]	42.6 ± 4.7	highest rates	–	–
C[N+](C)(C)CC(O)CC(=O)[O-] (stereo not drawn) [carnitine]	–	virtually no activity	did not catalyse	–
Nc1ncnc2c1ncn2[C@H]1C[C@H](O)[C@@H](COP(=O)(O)OP(=O)(O)OP(=O)(O)O)O1 [dATP]	106 ± 15	–	–	0.02
N[C@@H](CCC(=O)O)C(=O)O [glutamate]	–	–	did not catalyse	–
NC(=O)CC[C@H](N)C(=O)O [glutamine]	–	–	did not catalyse	–
O=C(O)CC(O)C(=O)O (stereo not drawn) [malate]	–	–	did not catalyse	–
NCCC[C@H](N)C(=O)O [ornithine]	–	–	did not catalyse	–
O=C(O)CCC(=O)C(=O)O [oxoglutarate]	–	virtually no activity	did not catalyse	–
